{"source": "patent US20230372481A1", "about": "(priority 2020, published 2023)", "key": {"[1]": {"test_system": "PBMCs of COVID-19 convalescent donors", "assay": "Secretion of IFNγ in the presence of dexamethasone with peptivators for SARS-COV-2", "type": "cell-based, human", "settings": "three SARS-CoV-2 peptides", "procedure": "Then they were mixed with PepTivators for SARS-CoV2 (Miltenyi Biotec. PepTivator Prot_M, Ref. 130-126-702; PepTivator Prot_N, Ref. 130-126-698 & PepTivator Prot_S, Ref. 130-126-700. Final concentration of 0.6 nmol/ml) for 5 hours at 37° C.; then IFNγ production of T cells were measured as before using the Miltenyi Biotec IFNg Detection Kit, Ref: 130-054-202. In all cases there was a basal condition, without peptivators and the cells where previously incubated with mouse Anti-Human CD3 (Clone OKT3; BD Biosciences, Ref:\n566685; final concentration of 2.8 μg/ml and CD28/CD49d Purified (Clone L293 L25 RUO GMP) (BD Biosciences. Ref. 347690; final concentration 5 μg/ml). Cell acquisition was performed using a Navios cytometer (Beckman Coulter), acquiring an average of 200,000 cells. The analysis was made using FlowJo 10.7.1 (FlowJoLLC). N=3, mean of the results was performed."}, "[2]": {"test_system": "PBMCs of COVID-19 convalescent donors", "assay": "Proliferation assay with CFSE in the presence of dexamethasone", "type": "cell-based, human", "settings": "dexamethasone 10-7-10-6 M", "procedure": "Around 2 million cells where incubated in a P24 plaque in 1 ml of supplemented medium with 1.5% v/v PHA (Phytohemagglutinin M form. Ref. 10576015), Mouse Anti-Human CD3 (Clone OKT3; BD Biosciences, Ref: 566685; final concentration of 0.05 μg/ml) and CD28/CD49d Purified (Clone L293 L25 RUO GMP) (BD Biosciences. Ref. 347690; final concentration 5 μg/ml).\nThe cells where incubated at 37° C. for 3 days and finally a CFSE proliferation assay (CellTrace™ CFSE Cell Proliferation Kit, Invitrogen, Ref.) was performed to determine if high doses of the drug decrease the division index of the cells. The cells were stained with CFSE and the different cell surface antibodies. Then, cell acquisition was performed using a Navios cytometer (Beckman Coulter), acquiring an average of 200,000 cells. The analysis was made using FlowJo 10.7.1 (FlowJoLLC). N=4 mean of the results was performed."}, "[3]": {"settings": "DEX 10^-7M, 72 hours (D3), listed as dexamethasone"}}}
{"smiles": "C[C@@H]1C[C@H]2[C@@H]3CCC4=CC(=O)C=C[C@]4(C)[C@@]3(F)[C@@H](O)C[C@]2(C)[C@@]1(O)C(=O)CO", "note": "[DEX, dexamethasone]", "values": [{"measurement": "Percentage of IFNg, CD45RA+", "setting": "[1]; DEX 10^-6M, 24 hours (D1)", "result": 0.00, "unit": "%"}, {"measurement": "Percentage of IFNg, CD45RA+CD3+", "setting": "[1]; DEX 10^-6M, 24 hours (D1)", "result": 0.00, "unit": "%"}, {"measurement": "Percentage of IFNg, CD45RA+CD3+CD4+", "setting": "[1]; DEX 10^-6M, 24 hours (D1)", "result": 0.32, "unit": "%"}, {"measurement": "Percentage of IFNg, CD45RA+CD3+CD8+", "setting": "[1]; DEX 10^-6M, 24 hours (D1)", "result": 0.00, "unit": "%"}, {"measurement": "Percentage of IFNg, CD45RA−", "setting": "[1]; DEX 10^-6M, 24 hours (D1)", "result": 2.0, "unit": "%"}, {"measurement": "Percentage of IFNg, CD45RA− CD3+", "setting": "[1]; DEX 10^-6M, 24 hours (D1)", "result": 0.7, "unit": "%"}, {"measurement": "Percentage of IFNg, CD45RA− CD3+CD4+", "setting": "[1]; DEX 10^-6M, 24 hours (D1)", "result": 1.1, "unit": "%"}, {"measurement": "Percentage of IFNg, CD45RA− CD3+CD8+", "setting": "[1]; DEX 10^-6M, 24 hours (D1)", "result": 0.1, "unit": "%"}, {"measurement": "Percentage of IFNg, CD45RA+", "setting": "[1]; DEX 10^-6M, 72 hours (D3)", "result": 0.61, "unit": "%"}, {"measurement": "Percentage of IFNg, CD45RA+CD3+", "setting": "[1]; DEX 10^-6M, 72 hours (D3)", "result": 1.06, "unit": "%"}, {"measurement": "Percentage of IFNg, CD45RA+CD3+CD4+", "setting": "[1]; DEX 10^-6M, 72 hours (D3)", "result": 1.43, "unit": "%"}, {"measurement": "Percentage of IFNg, CD45RA+CD3+CD8+", "setting": "[1]; DEX 10^-6M, 72 hours (D3)", "result": 1.29, "unit": "%"}, {"measurement": "Percentage of IFNg, CD45RA−", "setting": "[1]; DEX 10^-6M, 72 hours (D3)", "result": 2.68, "unit": "%"}, {"measurement": "Percentage of IFNg, CD45RA− CD3+", "setting": "[1]; DEX 10^-6M, 72 hours (D3)", "result": 3.27, "unit": "%"}, {"measurement": "Percentage of IFNg, CD45RA− CD3+CD4+", "setting": "[1]; DEX 10^-6M, 72 hours (D3)", "result": 3.04, "unit": "%"}, {"measurement": "Percentage of IFNg, CD45RA− CD3+CD8+", "setting": "[1]; DEX 10^-6M, 72 hours (D3)", "result": 4.50, "unit": "%"}, {"measurement": "Percentage of IFNg, CD45RA+", "setting": "[1]; DEX 10^-7M, 24 hours (D1)", "result": 0.27, "unit": "%"}, {"measurement": "Percentage of IFNg, CD45RA+CD3+", "setting": "[1]; DEX 10^-7M, 24 hours (D1)", "result": 0.40, "unit": "%"}, {"measurement": "Percentage of IFNg, CD45RA+CD3+CD4+", "setting": "[1]; DEX 10^-7M, 24 hours (D1)", "result": 0.11, "unit": "%"}, {"measurement": "Percentage of IFNg, CD45RA+CD3+CD8+", "setting": "[1]; DEX 10^-7M, 24 hours (D1)", "result": 1.77, "unit": "%"}, {"measurement": "Percentage of IFNg, CD45RA−", "setting": "[1]; DEX 10^-7M, 24 hours (D1)", "result": 5.9, "unit": "%"}, {"measurement": "Percentage of IFNg, CD45RA− CD3+", "setting": "[1]; DEX 10^-7M, 24 hours (D1)", "result": 1.7, "unit": "%"}, {"measurement": "Percentage of IFNg, CD45RA− CD3+CD4+", "setting": "[1]; DEX 10^-7M, 24 hours (D1)", "result": 2.4, "unit": "%"}, {"measurement": "Percentage of IFNg, CD45RA− CD3+CD8+", "setting": "[1]; DEX 10^-7M, 24 hours (D1)", "result": 2.6, "unit": "%"}, {"measurement": "Percentage of IFNg, CD45RA+", "setting": "[1]; DEX 10^-7M, 72 hours (D3)", "result": 2.08, "unit": "%"}, {"measurement": "Percentage of IFNg, CD45RA+CD3+", "setting": "[1]; DEX 10^-7M, 72 hours (D3)", "result": 5.12, "unit": "%"}, {"measurement": "Percentage of IFNg, CD45RA+CD3+CD4+", "setting": "[1]; DEX 10^-7M, 72 hours (D3)", "result": 3.29, "unit": "%"}, {"measurement": "Percentage of IFNg, CD45RA+CD3+CD8+", "setting": "[1]; DEX 10^-7M, 72 hours (D3)", "result": 3.91, "unit": "%"}, {"measurement": "Percentage of IFNg, CD45RA−", "setting": "[1]; DEX 10^-7M, 72 hours (D3)", "result": 7.21, "unit": "%"}, {"measurement": "Percentage of IFNg, CD45RA− CD3+", "setting": "[1]; DEX 10^-7M, 72 hours (D3)", "result": 8.03, "unit": "%"}, {"measurement": "Percentage of IFNg, CD45RA− CD3+CD4+", "setting": "[1]; DEX 10^-7M, 72 hours (D3)", "result": 7.06, "unit": "%"}, {"measurement": "Percentage of IFNg, CD45RA− CD3+CD8+", "setting": "[1]; DEX 10^-7M, 72 hours (D3)", "result": 8.67, "unit": "%"}, {"measurement": "Percentage of IFNg, CD45RA−", "setting": "[1]; [3]", "result": 2.08, "unit": "%"}, {"measurement": "Percentage of IFNg, CD45RA− CD3+", "setting": "[1]; [3]", "result": 5.12, "unit": "%"}, {"measurement": "Percentage of IFNg, CD45RA− CD3+CD4+", "setting": "[1]; [3]", "result": 3.29, "unit": "%"}, {"measurement": "Percentage of IFNg, CD45RA− CD3+CD8+", "setting": "[1]; [3]", "result": 3.91, "unit": "%"}, {"measurement": "Reduction of proliferation within the CD45RA− memory T cells", "setting": "[2]", "result": "0-5%"}]}
